# Assay results reported in patent publication US9855277B2, “Use of 5H-dibenz/b,f/azepine-5-carboxamide derivatives for treating fibromyalgia” (BIAL—PORTELA & CA, S.A., priority 2009, dated 2018).
# What was measured:
# Type in all cases: in vivo
# [1] = system: Mice (NMRI); assay: Formalin paw test; details: 300 mg/kg p.o.
# Experimental: The method, which detects analgesic activity, follows that described by Wheeler-Aceto et al (see […]-ACETO, H. & A., C. (1991), “Standardization of the rat paw formalin test for the evaluation of analgesics”, Psychopharmacology, 104, 35-44). Mice (NMRI) were given an intraplantar injection of 5% formalin (25 μl) into the posterior left paw. […] The time spent licking was counted for 15 minutes, beginning 15 minutes after injection of formalin. 10 mice were studied per group. The test was performed blind. ESL and carbamazepine (CBZ) were tested at the doses of 10, 30, 100 and 300 mg/kg p.o., and oxcarbazepine (OXC) and R-Lic were tested at the doses of 100 and 300 mg/kg p.o., administered 60 minutes before the test (i.e. 45 minutes before formalin), and compared with a vehicle control group in each experiment. Morphine (64 mg/kg p.o.), administered under the same experimental conditions, was used as reference substance.
# [2] = Plasma bioanalysis in CCI mice after oral ESL; details: oral ESL 50-200 mg/kg
# [3] = system: mice with chronic constriction nerve injury (CCI); assay: Paw withdrawal threshold (von Frey filaments) in CCI mice; details: gabapentin 100 mg/kg p.o.
# Experimental: The materials used were (as also indicated in FIGS. 1 and 2): • Vehicle: 0.5% hydroxy-propyl-methyl-cellulose (HPMC) in water, 5 ml/kg, p.o.; • 50 mg/kg, 100 mg/kg, 150 mg/kg and 200 mg/kg: ESL at 50, 100, 150 and 200 mg/kg, p.o.; • GP 100 mg/kg: gabapentin 100 mg/kg, p.o.
# The potential analgesic effects of orally dosed ESL was investigated at doses of 50, 100, 150 and 200 mg/kg, on the paw withdrawal threshold (PWT) and these effects compared with those of the dose vehicle and gabapentin, the latter at 100 mg/kg, in a mouse model of chronic constriction nerve injury (CCI).
# Each animal received a single oral dose of either ESL (50, 100, 150, or 200 mg/kg), or gabapentin (100 mg/kg in saline) or vehicle (5 ml/kg). Behavioural testing was then performed twice, at approximately 60 and 120 minutes post-dose, to investigate the effect of treatments.
structure (smiles),measurement,setting,value
"NC(=O)N1c2ccccc2C=Cc2ccccc21 [CBZ, carbamazepine, reference compound]",licking in the formalin test at 300 mg/kg,[1],abolished licking
NC(=O)N1c2ccccc2C[C@H](O)c2ccccc21 [eslicarbazepine],plasma concentrations vs dose of ESL,[2],positively correlated with the doses of ESL administered
"NCC1(CC(=O)O)CCCCC1 [gabapentin, reference compound]",PWT in the contralateral limbs vs vehicle group,"[3]; 2 hour after dosing, P<0.05",significantly higher
same,PWT,[3]; positive control,significantly increased PWT
